The source of these data is patent US20230192617A1, “AZABICYCLIC(THIO)AMIDES AS FUNGICIDAL COMPOUNDS” (Bayer CropScience Aktiengesellschaft, priority 2020, published 2023).

For orientation: chromatographic logP means lipophilicity estimated from chromatographic retention. A word on the inhibition: it is the share of the control response that was lost under treatment.

Series [1] in a line: Measurement of Log P values by HPLC on reversed phase columns (EEC directive 79/831 Annex V.A8). The class given is physicochemical. The following applies: reversed phase HPLC column. Summed up: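 Reversed-phase HPLC with UV detection per EEC 79/831 Annex V.A8, linear 10–95% acetonitrile gradient. Aqueous eluent: 0.1% formic acid (acidic), 0.001 M ammonium acetate (neutral), or 0.1% phosphoric acid (acidic); multiple values in one method joined by "+".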

In another series the test system is Alternaria brassicae. Nature of the series: In vivo preventive test on Alternaria brassicae (leaf spot on radish or cabbage). The following applies: 500 ppm of active ingredient, preventive spray on radish or cabbage, evaluated 3 to 4 days after inoculation, read-out: efficacy. The procedure, abridged:
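Young radish or cabbage plants were sprayed with compound dissolved in DMSO/acetone/Tween 80 and diluted in water; controls received solvent only. Inoculation by spraying A. brassicae spore suspension 24 h later, then 3–4 days at 20 °C and 100% relative humidity.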

Series [2] relates to Botrytis cinerea. Nature of the series: In vivo preventive test on Botrytis cinerea (grey mould). The following applies: 500 ppm of active ingredient, preventive spray on gherkin or cabbage, evaluated 4 to 5 days after inoculation, read-out: efficacy. Summed up:
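Young gherkin or cabbage plants were sprayed with compound in DMSO/acetone/Tween 80 diluted in water, then inoculated 24 hours later with a B. cinerea spore suspension. Incubation lasted 4 to 5 days: gherkin at 17° C., 90% relative humidity; cabbage at 20° C., 100% relative humidity.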

The next series has as its system Sphaerotheca fuliginea. Nature of the series: In vivo preventive test on Sphaerotheca fuliginea (powdery mildew on cucurbits). The following applies: Podosphaera fuliginea, 192 h; 500 ppm of active ingredient; preventive spray on gherkin; evaluated 8 days after inoculation; read-out: efficacy. As to the method: B-4. in vivo preventive test on Sphaerotheca fuliginea (powdery mildew on cucurbits) [table] The active ingredients were made soluble and homogenized in a mixture of Dimethyl sulfoxide/Acetone/Tween® 80 and then diluted in water to the desired concentration. The young plants of gherkin were treated by spraying the active ingredient prepared as described above. Control plants were treated only with an aqueous solution of Acetone/Dimethyl sulfoxide/Tween® 80. After 24 hours, the plants were contaminated by spraying the leaves with an aqueous suspension of Sphaerotheca fuliginea spores. The contaminated gherkin plants were incubated for 8 days at 20° C. and at 70-80% relative humidity.

Another series concerns Alternaria alternata. Nature of the series: Alternaria alternata in vitro cell test. The class given is cell-based. The note with it: 120 h, 20 ppm of active ingredient, liquid culture, 5 days incubation, spectrometric measurement of mycelium growth, read-out: efficacy (inhibition of fungal growth). The procedure, abridged:
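Liquid culture assay in which A. alternata spores in medium received DMSO-solubilized compound (final DMSO ≤1%). After 5 days, mycelium growth was measured spectrometrically. Inhibition was calculated against fungicide-free control wells.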

Series [3] has as its system Colletotrichum lindemuthianum. Nature of the series: B-8. Colletotrichum lindemuthianum in vitro cell test. The class given is cell-based. The following applies: 144 h, 20 ppm of active ingredient, 6 days incubation, liquid culture, absorbance, read-out: efficacy (inhibition of fungal growth). Summed up:
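Spore suspension of C. lindemuthianum in liquid medium exposed to DMSO-solubilized compounds (final DMSO ≤1%) for 6 days. Mycelial growth read by absorbance, with inhibition calculated relative to compound-free control wells.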

The subject of series [4] is Botrytis cinerea. Nature of the series: B-11. Botrytis cinerea in vitro cell test. The note with it: 144 h, 20 ppm of active ingredient, 6 days incubation, liquid culture, absorbance, read-out: efficacy (inhibition of fungal growth). The class given is cell-based. The procedure, abridged: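 B. cinerea spores were grown in liquid culture with compound (DMSO ≤1% final). Mycelium growth was measured spectrometrically after 6 days, with inhibition taken as absorbance relative to untreated control wells.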

In the next series the test system is Pyrenophora teres. Briefly: B-10. Pyrenophora teres in vitro cell test. The class given is cell-based. The note with it: 144 h, 20 ppm of active ingredient, 6 days incubation, liquid culture, absorbance, read-out: efficacy (inhibition of fungal growth). The procedure, abridged:
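Liquid-culture assay on a P. teres spore suspension with compounds added to the medium from DMSO solutions, final DMSO ≤1%. Mycelium growth read spectrometrically after 6 days. Inhibition calculated from absorbance against untreated control wells.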

The mark [5] stands for this setting: method [a]: LC-UV, acidic range, 0.1% formic acid in water and acetonitrile as eluent.

In series [1] (setting [5]), `O=C(NC[C@H](F)c1ccc(Cl)cc1Cl)c1c(Oc2cccc(C(F)(F)F)c2)cnc2ccccc12` (racemic) [I-043] yielded a chromatographic logP of 4.46. Also, the pest or weed control at 500 ppm in the series on Alternaria brassicae, in the series on Botrytis cinerea [2] and in the series on Sphaerotheca fuliginea was 90 to 100% in each case. In addition, the inhibition at 20 ppm (in the series with Alternaria alternata; in series [3]) was 90 to 100% throughout.
`Cc1cc(C(F)F)ccc1[C@@H](F)CNC(=O)c1c(Oc2cccc(C(F)(F)F)c2)cnc2ccccc12` (racemic) [I-057] came in with a chromatographic logP in series [1] (setting [5]) of 4.08. For the same molecule, the pest or weed control at 500 ppm in the series on Alternaria brassicae, with Botrytis cinerea [2] and with Sphaerotheca fuliginea was 90 to 100% in each case. Moreover, the inhibition at 20 ppm (with Alternaria alternata; in series [3]; in the series with Botrytis cinerea [4]) was 90 to 100% throughout.
In turn, `COc1cc([C@@H](F)CNC(=O)c2c(Oc3cccc(C(F)(F)F)c3)cnc3ccccc23)ccc1Cl` (racemic) [I-058] came in with a chromatographic logP in series [1] (setting [5]) of 4.05. The pest or weed control at 500 ppm with Alternaria brassicae, in the series on Botrytis cinerea [2] and in the series with Sphaerotheca fuliginea was 90 to 100% throughout. For the same molecule, the inhibition at 20 ppm (in the series with Alternaria alternata; in series [3]; with Botrytis cinerea [4]) was 90 to 100% in each case.
As for `O=C(NC[C@@H](F)c1ccc(Cl)c(Cl)c1)c1c(Oc2cccc(C(F)(F)F)c2)cnc2ccccc12` (racemic) [I-059], in series [1] (setting [5]), the chromatographic logP was 4.47. The figures for the pest or weed control at 500 ppm with Botrytis cinerea [2] and in the series with Sphaerotheca fuliginea were 90 to 100% and 70 to 79%, respectively. The inhibition at 20 ppm with Alternaria alternata and with Botrytis cinerea [4] was 90 to 100% each time.
Turning to `O=C(NC[C@H](F)c1ccc(C2CC2)cc1Cl)c1c(Oc2cccc(C(F)(F)F)c2)cnc2ccccc12` (racemic) [I-062], in series [1] (setting [5]), the chromatographic logP came out at 4.7. The pest or weed control at 500 ppm in the series with Alternaria brassicae, with Botrytis cinerea [2] and in the series with Sphaerotheca fuliginea was 90 to 100% in each case. Besides, the inhibition at 20 ppm (in the series on Alternaria alternata; in series [3]; in the series on Botrytis cinerea [4]) was 90 to 100% throughout.
The molecule `Cc1cc(Br)ccc1[C@@H](F)CNC(=O)c1c(Oc2cccc(C(F)(F)F)c2)cnc2ccccc12` (racemic) [I-063] gave a chromatographic logP in series [1] (setting [5]) of 4.59. Further, the pest or weed control at 500 ppm in the series with Alternaria brassicae, in the series on Botrytis cinerea [2] and in the series with Sphaerotheca fuliginea was 90 to 100% in each case. Further, the inhibition at 20 ppm (with Alternaria alternata; in series [3]; in the series on Botrytis cinerea [4]) was 90 to 100% each time.
In turn, `Cc1ccc(CCNC(=O)c2c(Oc3cccc(C(F)(F)F)c3)nnc3ccc(C)cc23)c(C)c1` [I-003] registered a chromatographic logP in series [1] (setting [5]) of 4.47. Further, the pest or weed control at 500 ppm with Alternaria brassicae, with Botrytis cinerea [2] and in the series with Sphaerotheca fuliginea was 90 to 100% each time. For the same molecule, the inhibition at 20 ppm (in the series on Alternaria alternata; in series [3]) was 90 to 100% each time.
In the case of `Cc1ccc(CCNC(=O)c2c(Oc3cccc(C(F)(F)F)c3)nnc3cc(C)ccc23)c(C)c1` [I-004, N-[2-(2,4-dimethylphenyl)ethyl]-7-methyl-3-[3-(trifluoro-methyl)phenoxy]cinnoline-4-carboxamide], the chromatographic logP in series [1] (setting [5]) came to 4.51. In addition, the pest or weed control at 500 ppm with Alternaria brassicae, in the series with Botrytis cinerea [2] and in the series with Sphaerotheca fuliginea was 90 to 100% throughout. Besides, the inhibition at 20 ppm (with Alternaria alternata; in series [3]) was 90 to 100% in each case.
Take `Cc1ccc(CCNC(=O)c2c(Oc3cccc(C(F)(F)F)c3)nnc3ccc(F)cc23)c(C)c1` [I-006]: in series [1] (setting [5]), the chromatographic logP was 4.46. The pest or weed control at 500 ppm in the series with Alternaria brassicae, in the series on Botrytis cinerea [2] and in the series with Sphaerotheca fuliginea was 90 to 100% each time. Further, the inhibition at 20 ppm (with Alternaria alternata; in series [3]; in the series on Botrytis cinerea [4]) was 90 to 100% throughout.
As for `Cc1ccc(C(F)(F)CNC(=O)c2c(Oc3cccc(C(F)(F)F)c3)nnc3ccccc23)c(C)c1` [I-008], the chromatographic logP in series [1] (setting [5]) is 4.27; in series [1] (method [b]: LC-UV, neutral range, 0.001 molar ammonium acetate solution in water and acetonitrile as eluent), 4.22. The results for the pest or weed control at 500 ppm in the series with Alternaria brassicae, with Botrytis cinerea [2] and with Sphaerotheca fuliginea were 80 to 89%, 90 to 100% and 90 to 100%, respectively. Moreover, the inhibition at 20 ppm in the series with Alternaria alternata was in the range of 90 to 100%; in series [3] it was 80 to 89%.
Molecule `O=C(NCC(F)(F)c1ccc(Br)cc1Cl)c1c(Oc2cccc(C(F)(F)F)c2)nnc2ccccc12` [I-021] registered a chromatographic logP in series [1] (setting [5]) of 4.58. For the same molecule, the pest or weed control at 500 ppm in the series with Alternaria brassicae, in the series on Botrytis cinerea [2] and in the series on Sphaerotheca fuliginea was 90 to 100% in each case. For the same molecule, the inhibition at 20 ppm (in the series with Alternaria alternata; in series [3]) was 90 to 100% in each case.
Consider `O=C(NCC(F)(F)c1ccc(Cl)cc1)c1c(Oc2cccc(C(F)(F)F)c2)nnc2ccccc12` [I-023], for which the chromatographic logP in series [1] (setting [5]) is 4.13. Besides, the pest or weed control at 500 ppm in the series with Alternaria brassicae, in the series on Botrytis cinerea [2] and in the series on Sphaerotheca fuliginea was 90 to 100% throughout. The inhibition at 20 ppm (in the series with Alternaria alternata; in series [3]) was 90 to 100% throughout.
Take `Cc1ccc(C(F)(F)CNC(=O)c2c(Oc3cncc(C(F)(F)F)c3)nnc3ccccc23)c(C)c1` [I-025]: in series [1] (setting [5]), the chromatographic logP amounted to 3.87. Besides, the pest or weed control at 500 ppm in the series on Alternaria brassicae, with Botrytis cinerea [2] and with Sphaerotheca fuliginea was 90 to 100% throughout. Also, the inhibition at 20 ppm (in the series with Alternaria alternata; in series [3]) was 90 to 100% in each case.
Regarding `O=C(NCC(F)(F)c1ccc(Cl)cc1)c1c(Oc2cncc(C(F)(F)F)c2)nnc2ccccc12` [I-026], the chromatographic logP in series [1] (setting [5]) is 3.61. The pest or weed control at 500 ppm in the series with Alternaria brassicae, in the series on Botrytis cinerea [2] and with Sphaerotheca fuliginea was 90 to 100% in each case. For the same molecule, the inhibition at 20 ppm (in the series with Alternaria alternata; in series [3]) was 90 to 100% in each case.
In turn, `O=C(NCC(F)(F)c1ccc(Br)cc1Cl)c1c(Oc2cncc(C(F)(F)F)c2)nnc2ccccc12` [I-027] showed a chromatographic logP in series [1] (setting [5]) of 4.08. The pest or weed control at 500 ppm with Alternaria brassicae, in the series on Botrytis cinerea [2] and in the series with Sphaerotheca fuliginea was 90 to 100% in each case. Moreover, the inhibition at 20 ppm (in the series with Alternaria alternata; in series [3]) was 90 to 100% throughout.
`O=C(NCC(F)(F)c1ccc(Br)cc1Cl)c1c(Oc2cccc(C(F)F)c2)nnc2ccccc12` [I-035] yielded a chromatographic logP in series [1] (setting [5]) of 4.14. Also, the pest or weed control at 500 ppm fell in the range of 90 to 100% with Alternaria brassicae, 90 to 100% in the series with Botrytis cinerea [2] and 70 to 79% in the series on Sphaerotheca fuliginea. For the same molecule, the inhibition at 20 ppm (in the series with Alternaria alternata; in series [3]) was 90 to 100% in each case.
In series [1] (setting [5]), `Cc1ccc(C(F)(F)CNC(=O)c2c(Oc3cccc(C(F)(F)F)c3)nnc3c2CCOCC3)c(C)c1` [I-114, N-[2-(2,4-dimethylphenyl)-2,2-difluoro-ethyl]-3-[3-(trifluoro-methyl)phenoxy]-5,6,8,9-tetrahydrooxepino[4,5-c]pyridazine-4-carboxamide] gave a chromatographic logP of 3.58. Further, the values for the pest or weed control at 500 ppm in the series with Alternaria brassicae, in the series with Botrytis cinerea [2] and with Sphaerotheca fuliginea were 70 to 79%, 90 to 100% and 90 to 100%, respectively. The inhibition at 20 ppm (with Alternaria alternata; in series [3]) was 90 to 100% throughout.
`Cc1ccc(C(F)(F)CNC(=O)c2c(Oc3cccc(C(F)(F)F)c3)c(C)nc3ccccc23)c(C)c1` [I-185] yielded a chromatographic logP in series [1] (setting [5]) of 4.59. Moreover, the pest or weed control at 500 ppm was in the range of 70 to 79% in the series with Alternaria brassicae and 90 to 100% in the series with Sphaerotheca fuliginea. Moreover, the inhibition at 20 ppm in the series on Alternaria alternata lay in the range of 80 to 89%; in the series with Pyrenophora teres, 90 to 100%.
